Experiment in all cases: NCI anticancer screen, dose series, 48 h
Experiment [1] relates to OVCAR-4 ovarian.
Experiment [2] has as its system U251 CNS.
In experiment [3] the test system is SF-539 CNS.
For experiment [4], the system named is HCT-15 colon.
The subject of experiment [5] is MCF7 breast.
Experiment [6] concerns SNB-19 CNS.
In experiment [7] the test system is SK-MEL-28 melanoma.
In experiment [8] the test system is SN12C renal.
For experiment [9], the system named is OVCAR-8 ovarian.
The test system of experiment [10] is UACC-62 melanoma.

The record followed here is PubChem BioAssay (NCI).

Where “and” joins values, the source holds several entries; their conditions need not be identical. Equal entries are not always repeated.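 Tested at 5 concentrations; 48 h exposure; 96-well plates; endpoints linearly interpolated, else capped at highest concentration. GI50 is the concentration that inhibits growth by half. TGI is the concentration that stops growth completely.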

Turning to `COc1ccc(-n2c(C)nc3c(c(C)nn3-c3ccccc3)c2=O)cc1`, the GI50 in experiment [1] was 1.11 µM; in [2], 0.0614 µM; in experiment [3], 47.1 nM; in experiment [4] it was 0.0483 µM; in experiment [5], 0.036 µM; in experiment [6], 0.064 µM. Besides, the GI50 was 2.07 µM in experiment [7], 0.442 µM in [8], 177 nM in experiment [9] and 0.0426 µM in experiment [10]. The TGI in experiment [1], in [2], in [4], in [5], in experiment [6] and in experiment [7] was greater than 100 µM throughout. In addition, the TGI in experiment [8], in experiment [9] and in experiment [10] was greater than 100 µM throughout.

Turning to `C[C@@H]1COC(Nc2ccc3ncnc(Nc4ccc(OCc5nccs5)c(Cl)c4)c3c2)=N1`, the GI50 is 5.72 µM and 3.79 µM in experiment [1]; 9.24 µM and 8.55 µM in [2]; > 10000 nM and 11900 nM in experiment [3]; 4.07 µM and 5.32 µM in [4]; 4.97 µM and 5.73 µM in experiment [5]; > 10 µM and 12.4 µM in [6]. The GI50 was 4.46 µM and 5.45 µM in experiment [7]; 6.15 µM and 4.86 µM in experiment [8]; 2970 nM and 2650 nM in [9]; 6.14 µM and 3.39 µM in experiment [10]. For the same molecule, the TGI in experiment [1] is > 10 µM and 17.3 µM; in [2], > 10 µM and 26.6 µM; in experiment [3] it was > 10 µM and 29.1 µM; in experiment [4] it was > 10 µM and 25.6 µM; in experiment [5], > 10 µM and 24 µM; in [6], > 10 µM and 32.4 µM. The TGI is > 10 µM and 18.9 µM in experiment [7]; > 10 µM and 26 µM in experiment [8]; > 10 µM and 16.8 µM in [9]; > 10 µM and 14.9 µM in experiment [10].

Regarding `COc1ccc2c(c1)C(=O)c1c-2n(CCCN2CCOCC2)c(=O)c2cc([N+](=O)[O-])ccc12`, the GI50 in [1] is less than 0.0264 µM; in [2] it was less than 0.01 µM; in experiment [3], less than 10 nM; in [4], less than 0.0151 µM; in experiment [5], less than 0.01 µM; in [6], less than 0.01 µM. Further, the GI50 was less than 0.01 µM in experiment [8], less than 10 nM in experiment [9] and less than 0.01 µM in experiment [10]. The TGI in [1] is 6.55 µM; in experiment [2], 0.0598 µM; in experiment [3] it was less than 0.01 µM; in experiment [4], 13.3 µM; in experiment [5] it was greater than 100 µM; in experiment [6] it was greater than 36.5 µM. The TGI in experiment [7] is 16.2 µM; in [8], 19.4 µM; in [9] it was greater than 50.6 µM; in experiment [10], 0.0291 µM.

Turning to `OCc1ccc(Oc2c3ccccc3nc3occc23)cc1`, the GI50 in [1] is 37.9 µM; in [2], 27 µM; in [3], 28900 nM; in [4], 19.4 µM; in experiment [5], 16.6 µM; in [6], 39.8 µM. Besides, the GI50 in experiment [7] was 41.4 µM; in experiment [8], 24.5 µM; in [9], 28300 nM; in [10] it was 20 µM. Further, the TGI in [1] was greater than 100 µM; in experiment [2], 56 µM; in [3], 71 µM; in experiment [4] it was 47.3 µM; in experiment [5], 39.5 µM; in experiment [6] it was greater than 100 µM. For the same molecule, the TGI in [7] is greater than 100 µM; in [8] it was 62.3 µM; in experiment [9], greater than 100 µM; in experiment [10], 47.3 µM.

On to `Cc1cc(NC(=O)NC(=O)c2ccccc2NC(=O)CN)ccc1Oc1ncc(Br)cn1`, for which the GI50 in experiment [1] is 17 µM; in [2], 0.409 µM; in experiment [3], 76.2 nM and 50.9 nM; in [5], 0.174 µM; in experiment [6], 0.336 µM; in experiment [7], 0.0822 µM. The GI50 in experiment [8] was 0.508 µM; in experiment [9] it was 650 nM; in experiment [10] it was 0.112 µM. Further, the TGI in experiment [1] is 45.4 µM and > 100 µM; in [2], 15 µM and 20.6 µM; in experiment [3], 0.351 µM and 0.481 µM; in experiment [4], 42.2 µM; in experiment [5], 23.3 µM and > 100 µM; in experiment [6], 26.3 µM and 16.4 µM. The TGI was 41.2 µM and > 100 µM in experiment [7]; 38 µM and 49.1 µM in experiment [8]; 45.7 µM and 17.8 µM in experiment [9]; 19.8 µM and 15.4 µM in [10].

Turning to `O=C(NC1(C(=O)O)CC1c1ccccc1)c1ccccc1` (configuration not stated), the TGI in experiment [1], in experiment [2], in experiment [3], in [4], in experiment [5] and in [6] was greater than 100 µM in each case. The TGI in experiment [7], in [8], in experiment [9] and in experiment [10] was greater than 100 µM throughout.

Regarding `COc1cc(/C=C2\C(=O)Nc3ccccc32)cc(OC)c1OC`, the GI50 is 22.1 µM in [1]; 10.9 µM in experiment [2]; 27900 nM in experiment [3]; 11.6 µM in experiment [4]; 19.9 µM in experiment [5]; 27.1 µM in experiment [6]. Further, the GI50 is 41.8 µM in experiment [7], 20.7 µM in [8], 25000 nM in [9] and 14.4 µM in experiment [10]. The TGI was greater than 100 µM in [1]; 63.5 µM in experiment [2]; greater than 100 µM in experiment [3]; greater than 100 µM in [4]; greater than 100 µM in experiment [5]; greater than 100 µM in [6]. Further, the TGI in experiment [7], in [8], in experiment [9] and in [10] was greater than 100 µM throughout.

For `NC1=NC(c2ccc(F)cc2)C2=C(N1)c1ccc3ccccc3c1OCC2` (configuration not stated), the GI50 was greater than 100 µM in [1]; 8.49 µM in experiment [2]; 343 nM in [3]; 3.25 µM in experiment [4]; 4.69 µM in experiment [5]; 16.2 µM in [6]. In addition, the GI50 in [7] is 18.6 µM; in [8], 22.2 µM; in [9], 14500 nM; in experiment [10], 3.14 µM. For the same molecule, the TGI in experiment [1] was greater than 100 µM; in experiment [2] it was greater than 100 µM; in experiment [3], 2.45 µM; in experiment [4], greater than 100 µM; in experiment [5], greater than 100 µM; in experiment [6], greater than 100 µM. Also, the TGI in experiment [7] was greater than 100 µM; in [8], greater than 100 µM; in [9], greater than 100 µM; in experiment [10] it was 30.9 µM.
